A value given as a limit tells only on which side of the number the result lay.

For the assay, the target named is MAPK14 (human) (UniProt Q16539). The assay is described as follows: Inhibition of MAPK14 Kinase Activity.
MAPK14 (human), sequence (Q16539 whole entry, looked up): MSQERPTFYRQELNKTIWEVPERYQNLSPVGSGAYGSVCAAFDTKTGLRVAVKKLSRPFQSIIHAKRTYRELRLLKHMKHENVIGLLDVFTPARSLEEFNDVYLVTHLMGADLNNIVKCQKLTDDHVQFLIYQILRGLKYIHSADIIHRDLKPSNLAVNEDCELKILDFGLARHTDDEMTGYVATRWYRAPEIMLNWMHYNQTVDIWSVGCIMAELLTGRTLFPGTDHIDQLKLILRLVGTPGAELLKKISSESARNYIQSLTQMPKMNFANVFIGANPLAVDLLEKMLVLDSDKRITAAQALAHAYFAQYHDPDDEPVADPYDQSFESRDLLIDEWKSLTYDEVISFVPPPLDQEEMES

The IC50 is the point on the concentration scale where inhibition reaches its midpoint. The molecule `CCOC(=O)c1sc2c(ccc(=O)n2CC2CC2)c1Nc1cccc(Br)c1` registered an IC50 not above 1 µM.

As for `N#Cc1sc2c(ccc(=O)n2CC2CC2)c1Nc1ccc(F)c(Cl)c1`, the IC50 is not above 1 µM.

As for `Cc1cc(Nc2c(C(N)=O)sc3c2ccc(=O)n3-c2ccc(F)cc2)ccc1F`, the IC50 is not above 1 µM.

As for `Cc1cccc(Nc2c(C(N)=O)sc3c2ccc(=O)n3C2CC2)c1`, the IC50 is not above 1 µM.

Molecule `N#Cc1sc2c(ccc(=O)n2-c2ccccc2)c1Nc1cccc([N+](=O)[O-])c1` had an IC50 not above 1 µM.

In turn, `N#Cc1sc2c(ccc(=O)n2-c2ccc(OC[C@@H](O)CO)cc2)c1Nc1ccc(F)cc1F` had an IC50 not above 1 µM.

Consider `Cc1ccc(Nc2c(C(N)=O)sc3c2ccc(=O)n3CC2CC2)cc1C`, for which the IC50 was not above 1 µM.

The molecule `N#Cc1sc2c(ccc(=O)n2-c2ccccc2)c1Nc1cccc(Cl)c1` came in with an IC50 not above 1 µM.

In turn, `CN(C)c1ccc(-n2c(=O)ccc3c(Nc4ccccc4)c(C(=O)N4CCCC4)sc32)cc1` registered an IC50 not above 1 µM.

`CCOC(=O)c1sc2c(ccc(=O)n2-c2ccccc2)c1Nc1cccc(OC(F)(F)F)c1` yielded an IC50 not above 1 µM.

For `CCOC(=O)c1sc2c(ccc(=O)n2-c2ccc(S(C)(=O)=O)cc2)c1Nc1cccc(C)c1`, the IC50 was not above 1 µM.

Molecule `N#Cc1cccc(Nc2c(C(N)=O)sc3c2ccc(=O)n3-c2ccccc2)c1` registered an IC50 not above 1 µM.

In turn, `NC(=O)c1sc2c(ccc(=O)n2-c2ccccc2)c1Nc1cccc(C(F)(F)F)c1` gave an IC50 not above 1 µM.

For `CCOC(=O)c1sc2c(ccc(=O)n2-c2ccccc2)c1Nc1cccc(C)c1C#N`, the IC50 was not above 1 µM.

In the case of `Cc1cccc(Nc2c(C#N)sc3c2ccc(=O)n3-c2ccccc2Cl)c1`, the IC50 was not above 1 µM.

As to `N#Cc1sc2c(ccc(=O)n2-c2ccccc2)c1Nc1ccccc1`, the IC50 is not above 1 µM.

Molecule `Cc1ccc(C#N)c(Nc2c(C(N)=O)sc3c2ccc(=O)n3-c2ccccc2)c1` gave an IC50 not above 1 µM.

Molecule `NC(=O)c1sc2c(ccc(=O)n2-c2ccccc2Cl)c1Nc1ccccc1` gave a half-maximal inhibitory concentration (IC50) not above 1 µM.

Molecule `NC(=O)c1sc2c(ccc(=O)n2-c2ccccc2[N+](=O)[O-])c1Nc1ccc(F)cc1F` returned an IC50 not above 1 µM.

`CCc1cccc(Nc2c(C(N)=O)sc3c2ccc(=O)n3-c2ccccc2)c1` yielded an IC50 not above 1 µM.

Molecule `CCOC(=O)c1sc2c(ccc(=O)n2-c2ccsc2)c1Nc1ccc(F)cc1F` displayed an IC50 not above 1 µM.

In turn, `CCOC(=O)c1sc2c(ccc(=O)n2-c2ccc(N(C)C)cc2)c1Nc1ccccc1` displayed an IC50 not above 1 µM.

As for `N#Cc1ccccc1Nc1c(C(N)=O)sc2c1ccc(=O)n2-c1ccsc1`, the IC50 is not above 1 µM.

`CCOC(=O)c1sc2c(ccc(=O)n2-c2ccccc2)c1N(C)c1ccccc1` showed an IC50 not above 1 µM.

For `CCOC(=O)c1sc2c(ccc(=O)n2-c2ccccc2)c1Nc1cccnc1`, the IC50 was not above 1 µM.

Molecule `N#Cc1sc2c(ccc(=O)n2-c2ccccc2)c1Nc1ccc(F)cc1F` yielded an IC50 not above 1 µM.

`CN1CCN(CCCNC(=O)c2sc3c(ccc(=O)n3-c3ccccc3)c2Nc2ccccc2)CC1` showed an IC50 not above 1 µM.

Molecule `NC(=O)c1sc2c(ccc(=O)n2-c2ccccc2)c1Nc1cccc(Cl)c1` came in with an IC50 not above 1 µM.

`Cc1ccc(Nc2c(C(N)=O)sc3c2ccc(=O)n3CC2CC2)c(C)c1`: the IC50 was not above 1 µM.

In turn, `Cc1cc(Nc2c(C(N)=O)sc3c2ccc(=O)n3CC2CC2)ccc1F` came in with an IC50 not above 1 µM.

Molecule `COC(=O)NNC(=O)c1sc2c(ccc(=O)n2-c2ccccc2)c1Nc1ccc(F)cc1F` showed an IC50 not above 1 µM.

As to `CCOC(=O)c1sc2c(ccc(=O)n2CC2CC2)c1Nc1cccc(C)c1C#N`, the IC50 was not above 1 µM.

`O=C(c1sc2c(ccc(=O)n2-c2ccccc2)c1Nc1ccc(F)cc1F)N1CCOCC1` returned an IC50 not above 1 µM.

Take `Cc1cc(=O)n(-c2ccccc2)c2sc(C(N)=O)c(Nc3ccccc3)c12`: the IC50 was not above 1 µM.

`C[S+]([O-])c1ccc(-n2c(=O)ccc3c(Nc4ccccc4C#N)c(C(N)=O)sc32)cc1` (stereo unspecified) came in with an IC50 not above 1 µM.

In turn, `Cc1cc(Nc2c(C#N)sc3c2ccc(=O)n3C2CC2)ccc1F` came in with an IC50 not above 1 µM.

Consider `O=C(c1sc2c(ccc(=O)n2-c2ccccc2)c1Nc1cccc(Cl)c1)N1CCCC1`, for which the IC50 is not above 1 µM.

`O=C(c1sc2c(ccc(=O)n2-c2ccccc2)c1Nc1ccccc1)N1CCCC1` came in with an IC50 not above 1 µM.

`N#Cc1ccccc1Nc1c(C(N)=O)sc2c1ccc(=O)n2-c1ccc(F)cc1` yielded an IC50 not above 1 µM.

Molecule `N#Cc1sc2c(ccc(=O)n2-c2ccccc2)c1Nc1cc(Cl)cc(Cl)c1` yielded an IC50 not above 1 µM.

In the case of `CCOC(=O)c1sc2c(ccc(=O)n2CC2CCCCO2)c1Nc1ccc(F)cc1F` (stereo unspecified), the IC50 was not above 1 µM.

`CC(C)(O)CNC(=N)c1sc2c(ccc(=O)n2-c2ccccc2)c1Nc1ccc(F)cc1F` had an IC50 not above 1 µM.

Molecule `CON(C)C(=O)c1sc2c(ccc(=O)n2-c2ccccc2)c1Nc1ccccc1` showed an IC50 not above 1 µM.

`CCOC(=O)c1sc2c(ccc(=O)n2-c2ccsc2)c1Nc1ccc(F)c(C)c1` had an IC50 not above 1 µM.

In turn, `Cc1ccc(Nc2c(C#N)sc3c2ccc(=O)n3CC2CC2)cc1C` displayed an IC50 not above 1 µM.

`NC(=O)c1sc2c(ccc(=O)n2Cc2ccccc2)c1Nc1ccccc1`: the IC50 is not above 1 µM.

`Cc1ccccc1-n1c(=O)ccc2c(Nc3ccc(F)cc3F)c(C(N)=O)sc21` came in with a concentration for half-maximal inhibition (IC50) not above 1 µM.

In the case of `CCOC(=O)c1sc2c(ccc(=O)n2-c2ccc(NS(C)(=O)=O)cc2)c1Nc1ccc(F)cc1F`, the IC50 was not above 1 µM.

`CCN(CC)CCNC(=O)c1sc2c(ccc(=O)n2-c2ccccc2)c1Nc1ccccc1` came in with an IC50 not above 1 µM.

Consider `NC(=O)c1sc2c(ccc(=O)n2CC2CC2)c1Nc1ccccc1`, for which the IC50 was not above 1 µM.

Molecule `CCOC(=O)c1sc2c(ccc(=O)n2-c2ccc(CN3CCCC3)cc2)c1Nc1ccccc1` gave an IC50 not above 1 µM.

The molecule `CCOC(=O)c1sc2c(ccc(=O)n2-c2ccccc2)c1Nc1cccc(C#N)c1` yielded an IC50 not above 1 µM.

`Cc1ccc(Nc2c(C#N)sc3c2ccc(=O)n3CC2CC2)c(C)c1` gave an IC50 not above 1 µM.

`Cc1cccc(Nc2c(C(N)=O)sc3c2ccc(=O)n3-c2ccccc2Cl)c1` came in with an IC50 not above 1 µM.

As for `CCOC(=O)c1sc2c(ccc(=O)n2-c2ccccc2)c1Nc1ccc(C#N)cc1`, the IC50 was not above 1 µM.

Take `Cc1cc(Nc2c(C(N)=O)sc3c2ccc(=O)n3C2CC2)ccc1F`: the IC50 was not above 1 µM.

Regarding `Cc1cccc(Nc2c(C(N)=O)sc3c2ccc(=O)n3-c2ccc(F)cc2)c1`, the IC50 was not above 1 µM.

In turn, `CCOC(=O)c1sc2c(ccc(=O)n2-c2ccc(C(O)CO)cc2)c1Nc1ccccc1` (stereo unspecified) had an IC50 not above 1 µM.

As for `NC(=O)c1sc2c(ccc(=O)n2-c2ccsc2)c1Nc1ccccc1`, the IC50 was not above 1 µM.

`O=C(NCCN1CCOCC1)c1sc2c(ccc(=O)n2-c2ccccc2)c1Nc1ccccc1` had an IC50 not above 1 µM.

`N#Cc1sc2c(ccc(=O)n2-c2ccccc2)c1Nc1ccccc1OC(F)F` returned an IC50 not above 1 µM.

As to `NC(=O)c1sc2c(ccc(=O)n2-c2cccnc2)c1Nc1ccccc1`, the IC50 was not above 1 µM.

Regarding `CCOC(=O)c1sc2c(ccc(=O)n2-c2ccc3c(ccn3S(C)(=O)=O)c2)c1Nc1ccccc1C#N`, the half-inhibitory concentration (IC50) was not above 1 µM.

For `NC(=O)c1sc2c(ccc(=O)n2-c2ccccc2)c1Nc1ccccc1`, the IC50 is not above 1 µM.

Regarding `CCOC(=O)c1sc2c(c(C)cc(=O)n2-c2ccccc2)c1Nc1ccccc1`, the IC50 is not above 1 µM.

`CCOC(=O)c1sc2c(ccc(=O)n2-c2ccccc2)c1Nc1cccc(Cl)c1C#N` had an IC50 not above 1 µM.

(Values after the Kinase Knowledgebase extract (Sharma et al. 2016).)
